How the values were obtained:
Assay type in all cases: in vivo
[1] = test system: large crabgrass (Digitaria sanguinalis, DIGSA); assay: Pre-emerge greenhouse herbicide test; conditions: 250 g ai/ha, 14 days after application, scale 0-100 (0 no damage, 100 complete death)
How it was run: (§1)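 Rates from 15 to 1000 g ai/ha, applied in acetone by track sprayer at 187 l/ha, were given either to soil one day after sowing (then watered in) or to foliage at 2–3 leaves with 0.25% v/v surfactant. Damage was rated 0–100 after 14 days.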

[2] = test system: barnyardgrass (Echinochloa crus-galli, ECHCG); assay: Pre-emerge greenhouse herbicide test; conditions: 250 g ai/ha, 14 days after application, scale 0-100 (0 no damage, 100 complete death)
How it was run: as §1

[3] = test system: ivyleaf morningglory (Ipomoea hederacea, IPOHE); assay: Pre-emerge greenhouse herbicide test; conditions: 250 g ai/ha, 14 days after application, scale 0-100 (0 no damage, 100 complete death)
How it was run: as §1

[4] = test system: johnsongrass (Sorghum halepense, SORHA); assay: Pre-emerge greenhouse herbicide test; conditions: 250 g ai/ha, 14 days after application, scale 0-100 (0 no damage, 100 complete death)
How it was run: as §1

[5] = test system: green foxtail (Setaria viridis, SETVI); assay: Pre-emerge greenhouse herbicide test; conditions: 250 g ai/ha, 14 days after application, scale 0-100 (0 no damage, 100 complete death)
How it was run: as §1

[6] = test system: sicklepod (Cassia obtusifolia, CASOB); assay: Pre-emerge greenhouse herbicide test; conditions: 250 g ai/ha, 14 days after application, scale 0-100 (0 no damage, 100 complete death)
How it was run: as §1

[7] = test system: velvetleaf (Abutilon theophrasti, ABUTH); assay: Pre-emerge greenhouse herbicide test; conditions: 250 g ai/ha, 14 days after application, scale 0-100 (0 no damage, 100 complete death)
How it was run: as §1

[8] = test system: lambsquarters (Chenopodium album, CHEAL); assay: Pre-emerge greenhouse herbicide test; conditions: 250 g ai/ha, 14 days after application, scale 0-100 (0 no damage, 100 complete death)
How it was run: as §1

[9] = test system: redroot pigweed (Amaranthus retroflexus, AMARE); assay: Pre-emerge greenhouse herbicide test; conditions: 250 g ai/ha, 14 days after application, scale 0-100 (0 no damage, 100 complete death)
How it was run: as §1

[10] = test system: field corn (Zea mays L., var. Dekalb 527, CORN); assay: Pre-emerge greenhouse crop damage test
How it was run: as §1

[11] = test system: soybean (Glycine max L., var. Pella 86, SOY); assay: Pre-emerge greenhouse crop damage test
How it was run: as §1

[12] = test system: upland rice (Ory0a sp., var.Tebonnet, RICE); assay: Pre-emerge greenhouse crop damage test; conditions: in vivo
How it was run: as §1

[13] = test system: large crabgrass (Digitaria sanguinalis, DIGSA); assay: Post-emerge greenhouse herbicide test; conditions: 250 g ai/ha, 14 days after application
How it was run: as §1

[14] = test system: barnyardgrass (Echinochloa crus-galli, ECHCG); assay: Post-emerge greenhouse herbicide test; conditions: 250 g ai/ha, 14 days after application
How it was run: as §1

[15] = test system: common ragweed (Ambrosia artemisiifolia L., AMBEL); assay: Post-emerge greenhouse herbicide test; conditions: 250 g ai/ha, 14 days after application
How it was run: as §1

[16] = test system: ivyleaf morningglory (Ipomoea hederacea, IPOHE); assay: Post-emerge greenhouse herbicide test; conditions: 250 g ai/ha, 14 days after application
How it was run: as §1

[17] = test system: johnsongrass (Sorghum halepense, SORHA); assay: Post-emerge greenhouse herbicide test; conditions: 250 g ai/ha, 14 days after application
How it was run: as §1

[18] = test system: green foxtail (Setaria viridis, SETVI); assay: Post-emerge greenhouse herbicide test; conditions: 250 g ai/ha, 14 days after application
How it was run: as §1

[19] = test system: sicklepod (Cassia obtusifolia, CASOB); assay: Post-emerge greenhouse herbicide test; conditions: 250 g ai/ha, 14 days after application
How it was run: as §1

[20] = test system: velvetleaf (Abutilon theophrasti, ABUTH); assay: Post-emerge greenhouse herbicide test; conditions: 250 g ai/ha, 14 days after application
How it was run: as §1

[21] = test system: lambsquarters (Chenopodium album, CHEAL); assay: Post-emerge greenhouse herbicide test; conditions: 250 g ai/ha, 14 days after application
How it was run: as §1

[22] = test system: redroot pigweed (Amaranthus retroflexus, AMARE); assay: Post-emerge greenhouse herbicide test; conditions: 250 g ai/ha, 14 days after application
How it was run: as §1

[23] = test system: field corn (Zea mays L., var. Dekalb 527, CORN); assay: Post-emerge greenhouse crop damage test
How it was run: as §1

[24] = test system: soybean (Glycine max L., var. Pella 86, SOY); assay: Post-emerge greenhouse crop damage test
How it was run: as §1

[25] = test system: upland rice (Ory0a sp., var.Tebonnet, RICE); assay: Post-emerge greenhouse crop damage test
How it was run: as §1

[26] = pre-emerge, 250 g ai/ha, 14 days after application, scale 0-100 (0 no damage, 100 complete death)
[27] = 250 g ai/ha, post-emerge, 14 days after application
[28] = var. Dekalb 527, field corn (Zea mays L.), in vivo, 14 days
[29] = var. Pella 86, soybean (Glycine max L.), in vivo, 14 days
[30] = var. Tebonnet, upland rice (Ory0a sp.), 14 days
[31] = var. Tebonnet, upland rice (Ory0a sp.), in vivo, 14 days

Row | SMILES | Pre-emerge Herbicidal Activity DIGSA (phytotoxicity rating) [1] | Pre-emerge Herbicidal Activity ECHCG (phytotoxicity rating) [2] | Pre-emerge Herbicidal Activity IPOHE (phytotoxicity rating) [3] | Pre-emerge Herbicidal Activity SORHA (phytotoxicity rating) [4] | Pre-emerge Herbicidal Activity SETVI (phytotoxicity rating) [5] | Pre-emerge Herbicidal Activity CASOB (phytotoxicity rating) [6] | Pre-emerge Herbicidal Activity ABUTH (phytotoxicity rating) [7] | Pre-emerge Herbicidal Activity CHEAL (phytotoxicity rating) [8] | Pre-emerge Herbicidal Activity AMARE (phytotoxicity rating) [9] | Post-emerge Herbicidal Activity DIGSA (phytotoxicity rating 0-100) [13] | Post-emerge Herbicidal Activity ECHCG (phytotoxicity rating 0-100) [14] | Post-emerge Herbicidal Activity AMBEL (phytotoxicity rating 0-100) [15] | Post-emerge Herbicidal Activity IPOHE (phytotoxicity rating 0-100) [16] | Post-emerge Herbicidal Activity SORHA (phytotoxicity rating 0-100) [17] | Post-emerge Herbicidal Activity SETVI (phytotoxicity rating 0-100) [18] | Post-emerge Herbicidal Activity CASOB (phytotoxicity rating 0-100) [19] | Post-emerge Herbicidal Activity ABUTH (phytotoxicity rating 0-100) [20] | Post-emerge Herbicidal Activity CHEAL (phytotoxicity rating 0-100) [21] | Post-emerge Herbicidal Activity AMARE (phytotoxicity rating 0-100) [22] | Pre-emerge Herbicidal Activity CORN (crop damage rating) [10, 28] | other results
1 | CC1Oc2c(Cl)cc(F)c(-c3nn(C)c(OC(F)F)c3Cl)c2NC1=O (stereo not drawn) [Compound 10-8, 4-Chloro-3-(8-chloro-6-fluoro-2-methyl-2H-1,4-benzoxazine-3-one-5-yl)-5-difluoromethoxy-1-methyl-i H-pyrazole] | 100 | 100 | 99 | 99 | 100 | 95 | 100 | 100 | 100 | 65 | 100 | 95 | 100 | 55 | 100 | 100 | 100 | 100 | 100 |  | Pre-emerge Herbicidal Activity CORN (crop damage rating) [10, 26]: 0; Pre-emerge Herbicidal Activity SOY (crop damage rating) [11, 26]: 15; Pre-emerge Herbicidal Activity RICE (crop damage rating) [12]: 40; Post-emerge crop damage CORN (phytotoxicity rating 0-100) [23, 27]: 25; Post-emerge crop damage SOY (phytotoxicity rating 0-100) [24, 27]: 100; Post-emerge crop damage RICE (phytotoxicity rating 0-100) [25, 27]: 90
2 | COC(=O)CC1CNc2c(c(Cl)cc(F)c2-n2c(=O)cc(C(F)(F)F)n(C)c2=O)O1 (stereo not drawn) [Compound 2-8, 3-[8-Chloro-6-fluoro-2-(methoxycarbonyl)methyl-3,4-dihydro-2H-1,4-benzoxazin-5-yl]-1-methyl-6-trifluoromethyl-2,4(1H,3H)-pyrimidindione] | 100 | 60 | 100 | 100 | 100 | 100 | 100 | 100 | 100 | 50 | 80 | 100 | 100 | 95 | 100 | 50 | 100 | 100 | 100 | 70 | Pre-emerge Herbicidal Activity SOY (crop damage rating) [11, 29]: 100; Pre-emerge Herbicidal Activity RICE (crop damage rating) [12, 30]: 50; Post-emerge crop damage CORN (phytotoxicity rating 0-100) [23, 28]: 70; Post-emerge crop damage SOY (phytotoxicity rating 0-100) [24, 29]: 100; Post-emerge crop damage RICE (phytotoxicity rating 0-100) [25, 31]: 90
3 | Cc1nc2c(-n3c(=O)cc(C(F)(F)F)n(C)c3=O)c(F)cc(Cl)c2oc1=O [Compound 3-1, 3-(8-Chloro-6-fluoro-3-methyl-2H-1,4-benzoxazin-2-one-5-yl)-1-methyl-6-trifluoromethyl-2,4(1H,3H)-pyrimidindione] | 0 | 0 | 0 | 0 | 20 | 0 | 100 | 100 | 60 | 0 | 0 | 20 | 50 | 0 | 0 | 0 | 95 | 60 | 70 | 0 | Pre-emerge Herbicidal Activity SOY (crop damage rating) [11, 29]: 0; Pre-emerge Herbicidal Activity RICE (crop damage rating) [12, 30]: 0; Post-emerge crop damage CORN (phytotoxicity rating 0-100) [23, 28]: 0; Post-emerge crop damage SOY (phytotoxicity rating 0-100) [24, 29]: 30; Post-emerge crop damage RICE (phytotoxicity rating 0-100) [25, 31]: 0

— patent publication US6573218B1, “Fused-benzene derivatives useful as herbicides” (Ishihara Sangyo Kaisha, Ltd., priority 1998, dated 2003)
